Values quoted from earlier work, collected in US20250345309A1, “IMMUNE HEALTH IMPROVERS” (Amazentis SA, priority 2024, published 2025).

Details: over 4 months, middle-aged adults (Singh et al. 2022); cited from earlier work

In the case of O=c1oc2cc(O)ccc2c2ccc(O)cc12 [Urolithin A (UA)], the “Safety and tolerability of long-term oral administration” value is listed as “safe and well tolerated”.
